What was measured:
[1] = DRUGMATRIX: Phosphodiesterase PDE4 enzyme inhibition (substrate: [3H]cAMP + cAMP); details: u-937; Not Active = under 50% inhibition at 10 µM
[2] = molecular target: Beta-1 adrenergic receptor (Homo sapiens, UniProt P08588); assay: DRUGMATRIX: Adrenergic beta1 radioligand binding (ligand: [125I] Cyanopindolol); type: cell membranes, CHO-K1, Membrane; details: cho-k1; Not Active = under 50% inhibition at 10 µM
[3] = molecular target: T1, Cholecystokinin receptor type A (Homo sapiens, UniProt P32238); type: cell membranes, Membrane; details: 1321-n1; note: in other assays of this panel Not Active means under 50% inhibition at 10 µM
T1 sequence (P32238 whole entry): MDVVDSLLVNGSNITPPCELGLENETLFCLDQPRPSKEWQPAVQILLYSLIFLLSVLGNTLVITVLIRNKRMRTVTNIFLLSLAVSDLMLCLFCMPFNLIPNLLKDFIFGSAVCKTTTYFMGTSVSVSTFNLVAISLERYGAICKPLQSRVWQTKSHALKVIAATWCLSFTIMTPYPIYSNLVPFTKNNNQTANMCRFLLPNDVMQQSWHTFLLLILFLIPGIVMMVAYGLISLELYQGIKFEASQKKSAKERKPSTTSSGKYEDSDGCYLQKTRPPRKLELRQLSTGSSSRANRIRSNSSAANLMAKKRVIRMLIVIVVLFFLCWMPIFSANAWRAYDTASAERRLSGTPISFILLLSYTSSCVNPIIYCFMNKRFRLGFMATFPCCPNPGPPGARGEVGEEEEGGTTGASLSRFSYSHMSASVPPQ

[4] = molecular target: Melanocortin receptor 4 (Homo sapiens, UniProt P32245); type: cell membranes, HEK293, Membrane; details: hek293; note: in other assays of this panel Not Active means under 50% inhibition at 10 µM
Melanocortin receptor 4, sequence (P32245 whole entry): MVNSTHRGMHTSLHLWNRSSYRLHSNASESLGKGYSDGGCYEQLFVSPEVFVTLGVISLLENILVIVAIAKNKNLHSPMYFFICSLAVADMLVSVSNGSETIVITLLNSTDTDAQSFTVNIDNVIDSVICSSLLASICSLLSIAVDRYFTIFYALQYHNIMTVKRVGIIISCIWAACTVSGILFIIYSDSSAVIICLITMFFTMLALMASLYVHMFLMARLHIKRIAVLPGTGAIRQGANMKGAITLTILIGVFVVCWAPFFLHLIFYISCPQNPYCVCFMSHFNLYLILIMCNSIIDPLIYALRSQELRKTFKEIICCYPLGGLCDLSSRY

[5] = molecular target: T2, Muscarinic acetylcholine receptor M4 (Homo sapiens, UniProt P08173); type: cell membranes, CHO-K1, Membrane; details: cho-k1; note: in other assays of this panel Not Active means under 50% inhibition at 10 µM
T2 sequence (P08173 whole entry): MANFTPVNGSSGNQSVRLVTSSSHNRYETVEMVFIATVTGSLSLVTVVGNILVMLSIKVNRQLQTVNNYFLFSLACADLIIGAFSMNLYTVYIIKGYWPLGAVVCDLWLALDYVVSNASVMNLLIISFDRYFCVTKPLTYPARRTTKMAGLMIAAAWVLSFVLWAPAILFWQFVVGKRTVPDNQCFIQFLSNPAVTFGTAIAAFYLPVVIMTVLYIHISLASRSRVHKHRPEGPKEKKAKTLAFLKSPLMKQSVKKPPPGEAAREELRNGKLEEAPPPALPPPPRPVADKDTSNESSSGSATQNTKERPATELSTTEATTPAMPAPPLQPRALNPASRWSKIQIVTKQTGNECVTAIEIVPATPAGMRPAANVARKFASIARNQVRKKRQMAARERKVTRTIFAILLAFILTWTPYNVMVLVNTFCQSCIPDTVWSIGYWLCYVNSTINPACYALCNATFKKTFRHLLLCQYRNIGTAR

[6] = molecular target: T3, Estrogen receptor (Homo sapiens, UniProt P03372); details: sf9; note: in other assays of this panel Not Active means under 50% inhibition at 10 µM
T3 sequence (P03372 whole entry): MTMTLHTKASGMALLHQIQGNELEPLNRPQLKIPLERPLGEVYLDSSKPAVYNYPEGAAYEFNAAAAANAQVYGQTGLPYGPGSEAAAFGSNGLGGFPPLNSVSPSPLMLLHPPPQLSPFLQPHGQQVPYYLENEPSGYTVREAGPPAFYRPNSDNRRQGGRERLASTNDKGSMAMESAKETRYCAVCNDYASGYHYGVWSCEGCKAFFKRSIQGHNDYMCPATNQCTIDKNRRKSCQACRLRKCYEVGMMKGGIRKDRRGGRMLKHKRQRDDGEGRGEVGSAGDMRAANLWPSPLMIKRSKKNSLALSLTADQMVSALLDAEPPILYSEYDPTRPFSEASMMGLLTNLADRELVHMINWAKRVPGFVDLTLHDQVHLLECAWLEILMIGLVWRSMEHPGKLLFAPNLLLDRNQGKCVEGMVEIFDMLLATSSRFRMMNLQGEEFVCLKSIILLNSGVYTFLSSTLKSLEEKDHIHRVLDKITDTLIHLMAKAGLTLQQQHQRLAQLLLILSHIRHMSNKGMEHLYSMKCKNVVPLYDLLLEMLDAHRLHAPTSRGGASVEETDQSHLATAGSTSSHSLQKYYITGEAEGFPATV

Beta-1 adrenergic receptor, sequence (P08588 whole entry): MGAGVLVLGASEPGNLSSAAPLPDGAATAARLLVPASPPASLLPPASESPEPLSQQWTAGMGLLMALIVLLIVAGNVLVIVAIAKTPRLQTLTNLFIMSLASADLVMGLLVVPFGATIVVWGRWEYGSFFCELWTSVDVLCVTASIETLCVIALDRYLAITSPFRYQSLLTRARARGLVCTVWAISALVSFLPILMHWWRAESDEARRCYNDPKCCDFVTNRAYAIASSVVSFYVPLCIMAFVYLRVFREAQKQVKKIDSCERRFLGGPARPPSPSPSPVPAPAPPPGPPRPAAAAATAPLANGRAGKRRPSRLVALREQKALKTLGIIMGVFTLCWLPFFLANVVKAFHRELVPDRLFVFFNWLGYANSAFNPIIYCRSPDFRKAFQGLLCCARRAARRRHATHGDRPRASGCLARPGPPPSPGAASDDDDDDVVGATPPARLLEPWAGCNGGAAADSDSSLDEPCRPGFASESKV

Cc1cc(C2CCCCC2)n(O)c(=O)c1 [CICLOPIROX]
Not Active: IC50 [1] | Ki [1] | IC50 [2] | IC50 [3] | IC50 [4] | IC50 [5] | IC50 [6]

CCCCN1CCCC[C@H]1C(=O)Nc1c(C)cccc1C [LEVOBUPIVACAINE]
Not Active: IC50 [1] | Ki [1] | IC50 [2] | IC50 [3] | IC50 [4] | IC50 [5] | IC50 [6]

CC[C@@]1(O)C[C@H](O[C@H]2C[C@H](N(C)C)[C@H](O[C@H]3C[C@H](O)[C@H](O[C@H]4CCC(=O)[C@H](C)O4)[C@H](C)O3)[C@H](C)O2)c2c(cc3c(c2O)C(=O)c2c(O)cccc2C3=O)[C@H]1C(=O)OC [ACLARUBICIN]
Not Active: IC50 [1] | Ki [1] | IC50 [2] | IC50 [3] | IC50 [4] | IC50 [5] | IC50 [6]

N=C(N)NCCN1CCCCCCC1 [GUANETHIDINE]
Not Active: IC50 [1] | Ki [1] | IC50 [2] | IC50 [3] | IC50 [4] | IC50 [5] | IC50 [6]

OC(Cn1cncn1)(Cn1cncn1)c1ccc(F)cc1F [FLUCONAZOLE]
Not Active: IC50 [1] | Ki [1] | IC50 [2] | IC50 [3] | IC50 [4] | IC50 [5] | IC50 [6]

Reference: ChEMBL document CHEMBL1909046, “DrugMatrix in vitro pharmacology data”
